The subject of one experiment is K562. Description: Cytotoxicity (MTT / trypan blue) in K562 cells. The format is cell-based. The following applies: Homo sapiens, read-out: Cytotoxicity IC 50 in μM (Cell lines) K562. Here is the method:
(§1) Human cancer cell lines, K562, MCF7, HeLa and HEK 293T were purchased from National Centre for Cell Science, Pune, India. Cells were grown in RPMI 1640/MEM/DMEM supplemented with 10% heat-inactivated fetal bovine serum (FBS), 100 U/mL of Penicillin, and 100 μg of streptomycin/mL and incubated at 37° C. in a humidified atmosphere containing 5% CO2.
(§2) The human T cell leukemia cell line Molt4, Human acute lymphoblastic leukemia (ALL) cell line Nalm6, Human acute myelocytic leukemia (AML) cell line Reh, chronic myelogenous leukemia (CML) cell line K562, Human breast adenocarcinoma cell lines like MCF7 and human kidney cell line HEK 293T (Human embryonic kidney cell line) were selected for the purpose of preliminary anticancer screening of newly synthesized compounds (ASR1 to ASR15). To check the cytotoxicity, trypan blue dye exclusion assays, MTT assay were employed as described earlier Further, Cell cycle analysis, Mitochondrial membrane potential, Annexin-V FITC staining assay were also performed in order to understand the mode of cell death after treatment with ASR6. Further, ASR6 was also tested for its ability to inhibit topoisomerase I and II activity in vitro.
(§3) Cytotoxic effect of the newly synthesized compounds against leukemic cells was assessed using 3-(4, 5-dimethyl-2-yl02, 5-diphenyl tetrazolium bromide (MTT) assay. After exposure of compound at different concentration (0.01, 0.1, 0.5, 1, 10, 50 and 100 μM) cells were harvested and transferred into 96 well plate, MTT (5 mg/ml) was added and incubate at 37° C. for 4 h and formazan crystals were dissolved by adding solubilizing agent (10% SDS and 50% dimethyl formamide) for 1 h, finally plate was read at 570 nm (Bio-Rad, USA). Results were represented as inhibition of percentage of cell proliferation in bar diagram (n=3) (FIGS. 1 A, C, E and G).
(§4) To determine the growth inhibitory activity of the drug, 0.5×10^5 cell/ml were plated in 24 well (Biofil, USA.) in 1 ml of complete medium and treated with various concentration of the compound to test, cells were stained with 0.4% trypan blue and counted on a hemocytometer after treatment with compounds at 48 and 72 h time point. Results were represented as number of viable cells/ml in bar diagram (FIGS. 1 B, D, F, and H) (n=3).

Experiment [1] has as its target T1, recombinant human DNA topoisomerase I (Homo sapiens, UniProt P11387).
T1 construct: purchased TopoGEN; Inc
T1 sequence (P11387 1-765): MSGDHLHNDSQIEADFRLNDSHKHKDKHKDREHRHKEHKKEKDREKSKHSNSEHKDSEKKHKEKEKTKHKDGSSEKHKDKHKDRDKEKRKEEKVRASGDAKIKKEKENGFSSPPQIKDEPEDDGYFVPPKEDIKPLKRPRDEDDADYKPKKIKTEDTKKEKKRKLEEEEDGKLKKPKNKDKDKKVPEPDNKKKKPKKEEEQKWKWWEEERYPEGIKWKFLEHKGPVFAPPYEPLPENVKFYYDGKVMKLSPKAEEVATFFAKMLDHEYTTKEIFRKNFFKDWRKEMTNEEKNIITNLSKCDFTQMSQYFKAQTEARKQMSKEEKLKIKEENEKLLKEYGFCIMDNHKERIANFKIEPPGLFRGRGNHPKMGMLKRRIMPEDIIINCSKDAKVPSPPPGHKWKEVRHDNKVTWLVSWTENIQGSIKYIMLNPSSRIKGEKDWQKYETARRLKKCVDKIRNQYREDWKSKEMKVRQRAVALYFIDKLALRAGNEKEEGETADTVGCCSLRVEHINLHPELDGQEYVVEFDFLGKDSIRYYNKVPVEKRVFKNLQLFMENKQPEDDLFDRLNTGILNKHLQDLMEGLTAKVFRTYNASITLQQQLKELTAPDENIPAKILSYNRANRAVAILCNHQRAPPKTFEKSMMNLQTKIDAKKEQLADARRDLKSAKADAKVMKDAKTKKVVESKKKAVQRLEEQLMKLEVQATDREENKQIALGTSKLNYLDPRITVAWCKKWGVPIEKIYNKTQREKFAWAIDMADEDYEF
Briefly: Topoisomerase I DNA relaxation assay. Format: biochemical. The following applies: 0, 10, 25, 50 and 100 μM, supercoiled pBS-SK+ plasmid, 37° C. 30 min. How it is done:
In order to determine the ability of ASR6 of topoisomerase I activity assay was performed, in a reaction mixture containing supercoiled plasmid DNA (pBS-SK+) was isolated using Gen Elute plasmid miniprep kit (Sigma Aldrich), according to manual instructions. ˜200 ng plasmid and two units of recombinant human DNA topoisomerase I (TopoGEN. Inc) along with the different concentrations of ASR6 (0, 10, 25, 50 and 100 μM) was added at RT for 5 min; equal amount of DMSO was used as vehicle control. Reaction was carried out at 37° C. for 30 min in a relaxation buffer 1× topoI buffer (50 mM Tris-HCl (pH 8.0), 10 mM NaCl, 10 mM MgCl2, 5 mM ATP, 0.5 mM dithiothreitol and 30 μg BSA/ml) and reactions were terminated by adding 5× stop buffer containing 5% sarkosyl, 0.0025% bromophenol blue, 25% glycerol. The DNA samples were electrophoresed on 1% agarose gel at 45 volts for 4 h with 0.5×TBE (Tris-borate-EDTA). The gels were stained for 30 min in milli Q water containing ethidium bromide (0.5 mg/ml) followed by distaining for 30 min in milli Q water and images were taken (FIG. 5). […] Topotecan (Topo I inhibitor) was used as positive control for topoisomerase I.

The test system of another experiment is Molt4. Briefly: Cytotoxicity (MTT / trypan blue) in Molt4 cells. Format: cell-based. The following applies: Homo sapiens, MOLT-4, read-out: Cytotoxicity IC 50 in μM (Cell lines) Molt4. How it is done: as §1
Nalm6, Molt4 and Reh cells were provided by Dr. Sathees C. Raghavan, Department of Biochemistry, IISc, Bangalore. The cells were grown under the similar culture conditions as mentioned above.
as §2, §3, §4

The subject of the next experiment is MCF7. Description: Cytotoxicity in MCF7 cells. The format is cell-based. The settings on record: Homo sapiens, read-out: Cytotoxicity IC 50 in μM (Cell lines) MCF7. How it is done:
as §1, §2, §3, §4

A further experiment relates to Molt4 cells. Briefly: Annexin V-FITC/PI staining for apoptosis. The settings on record: 0.25 & 0.5 μM, 48 h. The format is cell-based, Human. Here is the method: To identify induction of apoptosis after treatment withASR6 in Molt4 cells, annexin V-FITC and propidium iodide staining was carried out. Briefly, Molt4 cells (0.5×10^5 cells per ml) were seeded in 24 well plate and treated with ASR6 (0.25 & 0.5 μM; 48 h). Cells were washed with 1× phosphate buffered saline and suspended in cell binding buffer, stained with Annexin V-FITC (0.2 mg/ml) and propidium iodide (0.05 mg/ml)(Santacruz, USA), and incubated in dark for 20 min at room temperature. Finally cells were subjected to FACS analysis (FACSVerse™BD Bioscience, USA) (10,000 cells were acquired). The results were analyzed in WinMDI 2.9 Software, bar diagram was plotted using at least two independent experiments with error bar.

SMILES strings stand for the structures.

With `CCOC(=O)c1[nH]c(-c2ccc(Cl)cc2)cc1-c1cccnc1` [ASR6, Ethyl 5-(4-chlorophenyl)-3-(pyridin-3-yl)-1H-pyrrole-2-carboxylate], the IC50 with K562 came to 0.512 µM; in the experiment with Molt4, 0.195 µM; with MCF7, 0.884 µM. The “Inhibition of topoisomerase I activity (DNA relaxation)” value in experiment [1] is on record as “does not inhibit topoisomerase I activity”. The “Apoptotic cell population (annexin V-FITC/PI)” value in the experiment on Molt4 cells is recorded as “significant increase in apoptotic cell population”.
